Assay results as given in patent US20120015923A1, “USE OF ANDROGRAPHOLIDE COMPOUNDS FOR TREATING INFLAMMATION AND AIRWAY DISORDERS” (NATIONAL UNIVERSITY OF SINGAPORE, priority 2009, published 2012).

Columns and labels:
[1] = tested on: NF-κB signaling pathway in normal human bronchial epithelial cells; assay: TNF-α-induced NF-κB activation in normal human bronchial epithelial cells (immunoblotting, TransAM p65 ELISA); type: cell-based; conditions: 30 μM
Protocol: To determine the effects of andrograhpolide on OVA-specific immune responses in lymphocytes, thoracic lymph node cells were grown in bronchial epithelial bulletkit medium (Cambrex BioScience, Walkersvile, Md., USA), supplemented with bovine pituitary extract (2 ml), hydrocortisone (0.5 ml), recombinant human EGF (0.5 ml), epinephrine (0.5 ml), transferrin (0.5 ml), insulin (0.5 ml), retinoic acid (0.5 ml), triiodothyronine (0.5 ml), gentamycin sulfate (50 μg/ml), and amphotericin B (50 ng/ml). The cells were incubated in 5% CO2 incubator at 37° C., and subcultured at 80% to 85% confluency. Cells were exposed to 200 μg/ml OVA for 72 hours. Concanavalin A (Con A, 10 μug/ml) was used as a positive control. Supernatants from parallel triplicate cultures were analyzed for cytokine levels by ELISA. Normal human bronchial epithelial cells were cultured in optimized bronchial epithelial bulletkit medium with supplements (Lonza, Basel, Switzerland). Cells were pretreated with 30 μM andrographolide or vehicle (0.01% DMSO) 4 hours before stimulation with 10 ng/ml tumor necrosis factor (TNF)-α. Total and nuclear proteins, and mRNA were extracted from cells at specified time intervals.
(§1) Lung and cell culture nuclear proteins ([…]) were isolated. Lysates were incubated on ice for 30 min before centrifugation (18,000 g for 5 min). The supernatants were collected, and protein concentrations were determined using a BCA protein assay kit. 28 μl of the protein measured were mixed with 7 μl 5× sample buffer and boiled at 95° C. for 5 min. 10% SDS-PAGE gel was set as known in the art. The gel was placed in a Trans-Blot tank (Bio-Rad Laboratories, Hercules, Calif.). 30 μl of the sample mixtures and Pre-stained SDS Page Marker (Bio-Rad Laboratories, Hercules, Calif.) were loaded into respective wells and ran at 100V for 2 hours. The proteins were then transferred to a PVDF membrane using a semi-dry transblotter (ATTO Corp, Tokyo, Japan). The PVDF membrane was blocked with 5% non-fat milk in Tween-20 Tris buffered saline (TTBS) for 2 hours and probed with various primary antibodies in 1% non-fat milk in TTBS (1:2,000 for anti-rabbit antibodies; 1:5,000 for anti-mouse antibodies; 1:10,000 for β-actin) overnight at 4° C. The PVDF was then washed with TTBS for 10 times (2-3 min each), and incubated in HRP- or AP-conjugated anti-mouse or anti-rabbit antibodies for 1 hour. The membrane was again washed with TTBS. For HRP-conjugated antibody, 1 ml each of HRP substrate 1 and substrate 2 were added onto the membrane. For AP-conjugated antibody, 7.5 ml of AP substrates (300 μl AP 25×Buffer, 75 μl Reagent A, 75 μl Reagent B, 7.5 ml water) was added per gel. The data was then developed in the dark on hyperfilms using an ECL reagent. Immunoblots were probed with anti-p65, anti-phospho-p65 (Ser536), and anti-TATA binding protein (TBP, Abcam, Cambridge, UK).
(§2) Nuclear proteins were also analyzed for NF-κB DNA-binding activity using the TransAM p65 transcription factor assay kit (Active Motif, Carlsbad, Calif.).

[2] = tested on: IL-4, IL-5, IL-13, eotaxin and IFN-γ in the BAL fluid; assay: Cytokine and chemokine levels in BAL fluid (ELISA), OVA mouse asthma model; type: in vivo, BALB/c mice; conditions: OVA-challenged mice
Nitric Oxide (NO) = assay: Serum nitrate nitrite level; type: in vivo, BALB/c mice; conditions: OVA-challenged mice
p65 NF-κB = p65 NF-κB nuclear translocation and DNA-binding in lung tissue nuclear extracts; type: in vivo, BALB/c mice; conditions: 1 mg/kg; 24 hours after last OVA aerosol; reduced to the basal levels
Protocol: as §1, with “For HRP-conjugated antibody, 1 ml each of HRP substrate 1 and substrate 2 were added onto the membrane. For AP-conjugated antibody, 7.5 ml of AP substrates (300 μl AP 25×Buffer, 75 μl Reagent A, 75 μl Reagent B, 7.5 ml water) was added per gel. The data was then developed in the dark on hyperfilms using an ECL reagent. Immunoblots were probed with anti-p65, anti-phospho-p65 (Ser536), and anti-TATA binding protein (TBP, Abcam, Cambridge, UK).” left out
as §2

[3] = 10 ng/ml TNF-α for 5, 15 and 30 minutes

Question: `C=C1CC[C@@H]2[C@](C)(CO)[C@H](O)CC[C@@]2(C)[C@@H]1C/C=C1/C(=O)OC[C@H]1O` [Andrographolide] was tested. Which “TNF-α-induced IκBα degradation” value [1, 3] did it give?
Answer: blocked

Question: And the “TNF-α-induced p65 subunit of NF-κB phosphorylation” value [1, 3]?
Answer: blocked

Question: What about the “TNF-α-induced phosphorylation of IKKβ” value [1, 3] of the same compound?
Answer: blocked

Question: What about the IκB phosphorylation ([1]; 10 ng/ml TNF-α) of the same compound?
Answer: inhibition

Question: And the “TNF-α-induced p65 DNA-binding activity” value ([1]; TNF-α for 30 minutes)?
Answer: blocked

Question: What about the “TNF-α-induced p65 nuclear translocation” value ([1]; TNF-α for 30 minutes) of the same compound?
Answer: blocked

Question: What about the “GM-CSF level in BAL fluid” value [2] of the same compound?
Answer: inhibited

Question: And the “TNF-α level in BAL fluid” value [2]?
Answer: inhibited

Question: `C=C1CCC2C(C)(CO)C(O)CCC2(C)C1C=CC1=CCOC1=O` (stereo not shown) [DDAG, 14-Deoxy-11,12-didehydroandrographolide] was tested. Which “serum nitrate nitrite level” value (Nitric Oxide (NO)) did it give?
Answer: reduce

Question: What about the “nuclear p65 DNA-binding activity in lung tissue nuclear extract” value (p65 NF-κB) of the same compound?
Answer: significantly (P<0.05) reduced

Question: And the “nuclear p65 amount in lung tissue nuclear extract” value (p65 NF-κB)?
Answer: significantly (P<0.05) reduced

Question: And the “TNF-α-induced p65 DNA-binding” value ([1]; 10 ng/ml TNF-α for 5 minutes)?
Answer: markedly abated

Question: And the “TNF-α-induced p65 nuclear translocation” value ([1]; 10 ng/ml TNF-α for 5 minutes)?
Answer: markedly abated
